“And” between values parts separate entries of the source, which are not always exact repeats. Equal entries are not always repeated. “Also recorded” adds a separate entry of the source.
Columns and labels:
liver catalase = assay: Liver catalase activity after three weeks of diet treatment; format: in vivo, mouse (female Balb/c); details: for CATALASE ACTIVITY / catalase activity, in words: 0.25% of diet; for CATALASE ACTIVITY: control 31.1 ± 6.7, DHEA p < 0.05, clofibrate p < 0.001 vs control; for catalase activity, in words: mice
Protocol: (§1) Female Balb/c mice were housed in polycarbonate cages (6/mice/cage) in animal quarters maintained at 24°±1° C. with 12 hours of light and 12 hours of dark each day. The mice were placed on a diet containing either DHEA, 8354, A, B clofibrate or with no addition. Three weeks later the mice were killed, the livers were perfused with cold saline, weighed, and 5% liver homogenates were prepared for the determination of catalase activity by the spectrophotometric method of Luck (H. Luck, in Method in Enzyme Analysis, H. U. Bergmeyer, Ed. (Verlag Chemie, Weinheim/Bergstrasse, Germany, 1965)). Total protein was measured by the method of Lowry, et al. (O. H. Lowry, N. J. Rosebrough, A. L. Farr, R. J. Randall, J. Biol. Chem., 193, 265 (1951)).

mouse skin DNA = assay: (3H) DMBA binding to skin DNA; format: in vivo, mouse (A/J); details: for effect on 3H-DMBA binding to skin DNA: oral, mice, doses well below 400 mg/kg
[1] = Estrogenic / androgenic side-effects, general statements; details: in vivo
[2] = test system: mouse epidermis (TPA stimulated 3H-thymidine incorporation); assay: TPA stimulation of 3H-thymidine incorporation in mouse epidermis, oral steroid; format: in vivo, mouse (male ICR)
Protocol: (§2) Tumor promoters, such as TPA, stimulate hyperplasia and DNA synthesis when applied to the skin, and it is believed that this stimulation is an important step in the enhancement of tumorigenesis.
Male ICR mice were orally intubated with steroid suspended in sesame oil (0.5 ml/mouse) at the indicated dose. Mice not receiving steroid were given sesame oil alone. One hour later mice received topical application of TPA and 20 hours later the rate of ^3 H-thymidine incorporation into the epidermis was determined as described in Pashko, L. L., Schwartz, A. G., Abou-Gharbia, M., and Swern, D. (1981), Inhibition of DNA synthesis in mouse epidermis and breast epithelium by dehydroepiandrosterone and related steroids, Carcinogenesis, 2,-717-721.
Experimental conditions are the same as in Table 3.

[3] = target: purified bovine adrenal G6PDH (Bos taurus, UniProt F1MMK2); assay: G6PDH inhibition test; format: biochemical; details: individual determinations; for inhibition at 10 µM / inhibition at 1 µM / inhibition at 0.1 µM: read-out: Percent Inhibition of G6PDH
Sequence of purified bovine adrenal G6PDH (F1MMK2 31-70): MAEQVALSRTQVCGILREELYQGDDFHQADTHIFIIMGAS
Sequence of purified bovine adrenal G6PDH (F1MMK2 101-575): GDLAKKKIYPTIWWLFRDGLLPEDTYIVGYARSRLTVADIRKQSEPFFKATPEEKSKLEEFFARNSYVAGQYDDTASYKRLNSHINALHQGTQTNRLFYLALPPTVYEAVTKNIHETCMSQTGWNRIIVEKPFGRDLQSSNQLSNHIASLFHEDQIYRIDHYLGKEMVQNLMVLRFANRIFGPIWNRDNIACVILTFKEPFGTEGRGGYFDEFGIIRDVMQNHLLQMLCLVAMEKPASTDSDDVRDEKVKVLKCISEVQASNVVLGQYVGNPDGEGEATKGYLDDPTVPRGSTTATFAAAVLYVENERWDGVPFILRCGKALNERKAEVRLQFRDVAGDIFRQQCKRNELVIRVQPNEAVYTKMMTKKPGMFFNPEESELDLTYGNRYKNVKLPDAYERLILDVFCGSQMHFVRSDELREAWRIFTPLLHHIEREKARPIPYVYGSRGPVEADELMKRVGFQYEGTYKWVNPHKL
Text: The compound listed below are screened as inhibitors of purified bovine adrenal G6PDH activity as one predictor of cancer preventive action. The assay for testing the inhibition of purified bovine adrenal G6PDH is according to the procedure by Oertell, G. W. and Rebelein, I. in Biochem. Biophys. Acta, 184, 459-460 (1969).

[4] = Liver weight after three weeks of diet treatment; format: in vivo, mouse (female Balb/c); details: 0.25% of diet; for LIVER WEIGHT: control 0.057 ± 0.006, DHEA p < 0.05, clofibrate p < 0.002 vs control; for liver weight, in words: mice
Protocol: as §1

[5] = in vivo; cited from earlier work
[6] = Anti-obesity action, body weight, male A/J mice; format: in vivo, mouse (male A/J); details: 0.45% in diet
Protocol: Male A/J (5 weeks old) mice were obtained from the
Jackson Laboratory and were housed in polycarbonate cages (6
mice/cage) in animal quarters maintained at 24 ± 1° C. with 12
hours of light and 12 hours of darkness each day. One week
after arrival, the mice were placed on a diet containing
either DHEA, 8353, or without steroid. Animals were weighed

[7] = Estrogenic and anti-estrogenic activity, uterine weight; format: in vivo, rat (female CD); details: 60 mg/kg s.c. for 3 days; control 2.02 ± 0.28; DHEA significantly greater than control, p < .001
Protocol: Estrogenic and Anti-Estrogenic Activity
Female CD rats, 26-27 days old, were injected subcutaneously for 3 days with one of the compounds of the present invention at 60 mg/kg in propylene glycol. Controls received propylene glycol alone. On the 4th day, the rats were killed and the uteri were dissected out and weighed.

[8] = test system: mouse epidermal DNA (TPA stimulated 3H-thymidine incorporation); assay: TPA stimulation of 3H-thymidine incorporation in epidermis, topical steroid; format: in vivo, mouse (A/J); details: no steroid 66, TPA alone 174
Protocol: as §2
Incorporation of ^3 H-thymidine into A/J mouse epidermal DNA was determined as described in Pashko, L. L., Schwartz, A. G., Abou-Gharbia, M. and Swern, D. (1981), Inhibition of DNA synthesis in mouse epidermis and breast epithelium by dehydroepiandrosterone and related steroids, Carcinogenesis, 2, 717-721. Values are mean±SD for 3 separately treated mice in each group 20 hours after TPA application. DHEA or testosterone was added topically in 0.2 ml acetone one hour before TPA addition.

[9] = Body weight and food consumption in the DMBA binding experiment; format: in vivo, mouse; details: two weeks of feeding
Protocol: Binding of [^3 H]DMBA to mouse skin DNA was determined as described in Pashko, L. L., and Schwartz, A. G. (1983), Effect of food restriction, dehydroepiandrosterone, or obesity on the binding of ^3 H-7,12-dimethylbenz(a)anthracene to mouse skin DNA, J. Gerontol., 38, 8-12. Values are mean±SD for 3 individual determinations, with pooled tissue from 2 mice used for each determination. DHEA or testosterone (400 ug in 0.2 ml acetone) was applied to the skin one hour before [^3 H]DMBA. The mean weight of the food restricted mice was 18.5±1.0 gm, n=6, of the ad libitum fed, 27.4±1.0 gm, n=6, of the ad libitum fed treated with DHEA, 28.2±0.9 gm, n=6, and of the ad libitum fed treated with testosterone, 28.3±0.9 gm, n=6, following two weeks of feeding. The average food consumed was, in gm/mouse/day, 2.2, 3.8, 3.8 and 4.0 for the food restricted, ad libitum fed, ad libitum fed plus DHEA, and ad libitum fed plus testosterone groups, respectively.

[10] = Table 3, oral 25 mg/kg, no steroid 70.2, TPA alone 154
[11] = Table 3, oral 50 mg/kg, no steroid 70.2, TPA alone 154
[12] = Table 3, oral 100 mg/kg, no steroid 70.2, TPA alone 154

SMILES | CATALASE ACTIVITY (liver catalase) | catalase activity, in words (liver catalase) | effect on 3H-DMBA binding to skin DNA (mouse skin DNA) | Percent Inhibition of G6PDH ([3]; 10^-5 M) | inhibition at 10 µM ([3]; 10^-5 M) | inhibition at 1 µM ([3]; 10^-6 M) | Percent Inhibition of G6PDH ([3]; 10^-7 M) | inhibition at 0.1 µM ([3]; 10^-7 M) | LIVER WEIGHT [4] | liver weight, in words [4] | Percent Inhibition of G6PDH ([3]; 10^-6 M) | effect on liver (type of hepatomegaly) [5] | further results
C[C@]12CCCC[C@@H]1CC[C@@H]1[C@@H]2CC[C@]2(C)C(=O)[C@H](O)C[C@@H]12 [A] | 42.3 ± 7.2 Units per mg protein | no effect on liver weight or catalase activity | inhibit ^3 H-DMBA binding to skin DNA | 92% and 91% | 94% | 72% | 25% | 17% | 0.058 ± 0.004 gm/gm body weight | no effect on liver weight; also recorded: neither increased liver weight |  |  | estrogenic and androgenic side-effects [1]: lacking the estrogenic and androgenic side-effects of DHEA; SPECIFIC ACTIVITY, TPA stimulated 3H-thymidine incorporation [2, 10]: 77.4 ± 10.4 cpm/ug DNA; SPECIFIC ACTIVITY, TPA stimulated 3H-thymidine incorporation [2, 11]: 35.2 ± 1.8 cpm/ug DNA; SPECIFIC ACTIVITY, TPA stimulated 3H-thymidine incorporation [2, 12]: 8.1 ± 4.1 cpm/ug DNA
C[C@]12CCCC[C@@H]1CC[C@@H]1[C@@H]2CC[C@]2(C)C(=O)[C@H](F)C[C@@H]12 [B] | 32.2 ± 6.0 Units per mg protein | no effect on liver weight or catalase activity | inhibit ^3 H-DMBA binding to skin DNA |  | 96% | 82% |  | 36% | 0.061 ± 0.002 gm/gm body weight | no effect on liver weight; also recorded: neither increased liver weight | 84% |  | estrogenic and androgenic side-effects [1]: lacking the estrogenic and androgenic side-effects of DHEA; SPECIFIC ACTIVITY, TPA stimulated 3H-thymidine incorporation [2, 10]: 66.1 ± 9.8 cpm/ug DNA; SPECIFIC ACTIVITY, TPA stimulated 3H-thymidine incorporation [2, 11]: 25.6 ± 4.0 cpm/ug DNA; SPECIFIC ACTIVITY, TPA stimulated 3H-thymidine incorporation [2, 12]: 7.2 ± 3.8 cpm/ug DNA
C[C@@H]1C[C@H]2[C@@H]3CC=C4CCCC[C@]4(C)[C@H]3CC[C@]2(C)C1=O [C] |  |  |  | 52% | 54% | 33% | 24% | 20% |  |  | 31% |  | 
CCOC(=O)C(C)(C)Oc1ccc(Cl)cc1 [Clofibrate, clofibrate, reference compound] | 92.1 ± 8.9 Units per mg protein | stimulated catalase activity |  |  |  |  |  |  | 0.084 ± 0.006 gm/gm body weight | increased liver weight; also recorded: hepatomegaly |  | Typical peroxisome proliferators | increase in liver catalase specific activity (liver catalase; 0.25%, vs control): threefold
C[C@]12CCCCC1=CC[C@@H]1[C@@H]2CC[C@]2(C)C(=O)[C@H](O)C[C@@H]12 [Compound 8353] |  |  | inhibit ^3 H-DMBA binding to skin DNA |  | 77% | 30% |  |  |  |  | 36% and 29% and 38% |  | mean weekly weight ± S.D. ([6]; week 0, control 23 ± 1.5): 23.3 ± 1.6 grams; mean weekly weight ± S.D. ([6]; week 1, control 25.0 ± 1.6): 21.1 ± 1.4 grams; mean weekly weight ± S.D. ([6]; week 2, control 27.0 ± 1.6): 21.9 ± 1.0 grams; mean weekly weight ± S.D. ([6]; week 3, control 27.3 ± 1.6): 23.6 ± 1.5 grams; mean weekly weight ± S.D. ([6]; week 4, control 27.5 ± 1.9): 23.5 ± 1.5 grams; SPECIFIC ACTIVITY, TPA stimulated 3H-thymidine incorporation ([2]; Table 8, 75 mg/kg, p.o.): 15.9 ± 2.4 cpm/ug DNA; SPECIFIC ACTIVITY, TPA stimulated 3H-thymidine incorporation ([2]; Table 8, 150 mg/kg, p.o.): 14.0 ± 1.1 cpm/ug DNA; SPECIFIC ACTIVITY, TPA stimulated 3H-thymidine incorporation ([2]; Table 8, 200 mg/kg, p.o.): 14.3 ± 1.7 cpm/ug DNA; Mean Uterine Weight ± S.D. [7]: 2.15 ± 0.17 mg/100 gm body weight
Clc1ccc(C(c2ccc(Cl)cc2)C(Cl)(Cl)Cl)cc1 [DDT] |  |  |  |  |  |  |  |  |  |  |  | stimulate proliferation of smooth endoplasmic reticulum in liver cells and induce microsomal drug metabolizing enzymes | 
C[C@H]1C[C@H]2[C@@H]3CC=C4CCCC[C@]4(C)[C@H]3CC[C@]2(C)C1=O [D] |  |  |  | 47% | 44% | 13% |  |  |  |  | 20% |  | 
C[C@]12CCCCC1=CC[C@@H]1[C@@H]2CC[C@]2(C)C(=O)[C@](C)(F)C[C@@H]12 [F] |  |  |  |  | 82% | 66% | 34% | 28% |  |  | 69% |  | 
CCC1(c2ccccc2)C(=O)NC(=O)NC1=O [phenobarbital] |  |  |  |  |  |  |  |  |  |  |  | stimulate proliferation of smooth endoplasmic reticulum in liver cells and induce microsomal drug metabolizing enzymes | 
C[C@]12CC[C@H]3[C@@H](CCC4=CC(=O)CC[C@@]43C)[C@@H]1CC[C@@H]2O [testosterone] |  |  |  |  |  |  |  |  |  |  |  |  | SPECIFIC ACTIVITY, (3H) DMBA binding to skin DNA (mouse skin DNA; 400 ug topical one hour before DMBA, ad libitum fed 116 ± 5.2): 164 ± 8.4 cpm/ug DNA; effect on rate of binding of 3H-DMBA to skin DNA (mouse skin DNA; topical, in words (Table 4)): without inhibitory effect; SPECIFIC ACTIVITY, TPA stimulated 3H-thymidine incorporation ([8]; topical 100 ug): 128 ± 13 cpm/ug DNA; SPECIFIC ACTIVITY, TPA stimulated 3H-thymidine incorporation ([8]; topical 400 ug): 142 ± 5.9 cpm/ug DNA; mean body weight ([9]; topical 400 ug, ad libitum fed 27.4±1.0): 28.3±0.9 gm; average food consumed ([9]; ad libitum fed 3.8): 4.0 gm/mouse/day

— US5744462A, “Steroids useful as anti-cancer and anti-obesity agents” (Research Corporation Technologies, Inc., priority 1995, dated 1998)
